61 molecules from publication PMC5733478, “A Non-imaging High Throughput Approach to Chemical Library Screening at the Unmodified Adenosine-A3 Receptor in Living Cells” (Frontiers in Pharmacology, 2017) can be followed below.

Where a name gives a salt, the structure may show the parent alone.

In the first assay the target is T1, human A3AR (Homo sapiens, UniProt P0DMS8).
T1 construct: expressed in transfected cells
T1 sequence (P0DMS8 1-318): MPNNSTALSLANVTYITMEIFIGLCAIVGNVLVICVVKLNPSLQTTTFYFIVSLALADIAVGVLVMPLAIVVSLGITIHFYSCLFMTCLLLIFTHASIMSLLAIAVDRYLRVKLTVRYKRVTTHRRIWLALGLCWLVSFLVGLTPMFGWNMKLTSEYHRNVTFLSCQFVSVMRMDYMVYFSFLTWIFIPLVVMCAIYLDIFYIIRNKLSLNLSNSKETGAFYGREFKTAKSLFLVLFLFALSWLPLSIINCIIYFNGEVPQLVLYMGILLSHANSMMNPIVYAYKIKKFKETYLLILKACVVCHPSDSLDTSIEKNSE
Briefly: LOPAC library primary screen: single concentration (10 μM) inhibition of 25 nM CA200645 binding, PHERAstar FS.
Conditions: not given
In the case of `CC(C)(C)NCC(O)c1ccc(O)c(CO)c1.CC(C)(C)NCC(O)c1ccc(O)c(CO)c1.O=S(=O)(O)O` (stereo not shown) [Albuterol hemisulfate], the “% 25 nM CA200645 binding” value is 97.4 ± 12.0%.
The same measure, in the same setting: as for `COc1cc2nc(N(C)CCCNC(=O)C3CCCO3)nc(N)c2cc1OC` (stereo not shown) [Alfuzosin hydrochloride], the figure is 102.3 ± 4.9%; as for `Oc1ncnc2[nH]ncc12` [Allopurinol], 99.8 ± 7.2%.
The same measure, in the same setting: the result for `CN(C)c1nc(N(C)C)nc(N(C)C)n1` [Altretamine] reads 99.1 ± 9.2%; that for `NC12CC3CC(CC(C3)C1)C2` [Amantadine hydrochloride], 104.6 ± 3.5%.
Turning to `NCCCNCCSP(=O)(O)O` [Amifostine], the “% 25 nM CA200645 binding” value came out at 94.6 ± 2.0%.
Same read-out and setting: as for `N=C(N)NC(=O)c1nc(Cl)c(N)nc1N` [Amiloride hydrochloride], the figure is 88.5 ± 23.0%; as for `CN1[C@@H]2CC[C@H]1C[C@@H](OC(c1ccccc1)c1ccccc1N)C2` (stereo partly shown) [Aminobenztropine], 92.7 ± 5.2%; as for `NN=C(N)N.NN=C(N)N.O=S(=O)(O)O` [Aminoguanidine hemisulfate], 99.2 ± 8.4%.
On the same count and under the same terms, as for `Cl.N=C(N)NN` [Aminoguanidine hydrochloride], the figure is 100.9 ± 6.1%; as for `Cn1c(=O)c2[nH]cnc2n(C)c1=O.Cn1c(=O)c2[nH]cnc2n(C)c1=O.NCCN` [Aminophylline ethylenediamine], 89.2 ± 8.4%.
Same read-out and setting: as for `Nc1nc(N)c2nc(CNc3ccc(C(=O)N[C@@H](CCC(=O)O)C(=O)O)cc3)cnc2n1` [Aminopterin], the figure is 91.1 ± 3.5%.
For the molecule `CCCCc1oc2ccccc2c1C(=O)c1cc(I)c(OCCN(CC)CC)c(I)c1` [Amiodarone hydrochloride], the “% 25 nM CA200645 binding” value was 91.5 ± 10.5%.
Consider `CCN1CCCC1CNC(=O)c1cc(S(=O)(=O)CC)c(N)cc1OC` (stereo not shown) [Amisulpride], for which the “% 25 nM CA200645 binding” value worked out at 98.0 ± 5.3%.
For `CN(C)CCC=C1c2ccccc2CCc2ccccc21` [Amitriptyline hydrochloride], the “% 25 nM CA200645 binding” value worked out at 83.6 ± 19.8%.
As for `Clc1ccc2c(c1)C(N1CCNCC1)=Nc1ccccc1O2` [Amoxapine], the “% 25 nM CA200645 binding” value worked out at 102.6 ± 1.7%.
For the molecule `COc1cc(NS(C)(=O)=O)ccc1Nc1c2ccccc2nc2ccccc12` [Amsacrine hydrochloride], the “% 25 nM CA200645 binding” value is 99.8 ± 8.3%.
As for `N=c1ccn2c(n1)O[C@H]1[C@H](O)[C@@H](CO)O[C@H]12` [Ancitabine hydrochloride], the “% 25 nM CA200645 binding” value was found to be 106.9 ± 5.2%.
Take `COc1ccc(C(=O)N2CCCC2=O)cc1` [Aniracetam]: the “% 25 nM CA200645 binding” value came to 95.9 ± 3.1%.
For the molecule `CCCC(CCC)C(=O)O[C@H]1C[C@H]2CC[C@@H](C1)[N+]2(C)C` [Anisotropine methyl bromide], the “% 25 nM CA200645 binding” value came to 97.1 ± 12.3%.
Still for that read-out and setting: the result for `Cl.c1ccc(CN(CC2=NCCN2)c2ccccc2)cc1` [Antozoline hydrochloride] reads 97.0 ± 6.0%; that for `O=c1cc(-c2ccc(O)cc2)oc2cc(O)cc(O)c12` [Apigenin], 41.8 ± 13.4%; that for `CN1CCc2cccc3c2[C@H]1Cc1ccc(O)c(O)c1-3` [Apomorphine hydrochloride hemihydrate], 95.0 ± 6.4%.
Regarding `CCN(CC)CCCN(c1ccccc1)C1Cc2ccccc2C1` [Aprindine hydrochloride], the “% 25 nM CA200645 binding” value was found to be 96.8 ± 13.3%.
On the same count and under the same terms, as for `Nc1nc2c(ncn2[C@@H]2O[C@H](CO)[C@@H](O)[C@@H]2O)c(=O)[nH]1.O` [Ara-G hydrate], the figure is 96.8 ± 6.9%; as for `C#CCOC(=O)C1=CCCN(C)C1` [Arecaidine propargyl ester hydrobromide], 96.0 ± 12.2%; as for `COC(=O)C1=CCCN(C)C1` [Arecoline hydrobromide], 81.8 ± 27.0%.
On the same count and under the same terms, the result for `CC1=C(/C=C/C(C)=C/C=C/C(C)=C/C=C/C=C(C)/C=C/C=C(C)/C=C/C2=C(C)C(=O)[C@@H](O)CC2(C)C)C(C)(C)C[C@H](O)C1=O` [Astaxanthin] reads 96.8 ± 4.6%; that for `CC(C)c1c(C(=O)Nc2ccccc2)c(-c2ccccc2)c(-c2ccc(F)cc2)n1CC[C@@H](O)C[C@@H](O)CC(=O)O` [Atorvastatin calcium salt trihydrate], 97.7 ± 2.2%.
On the same count and under the same terms, as for `CC(=O)OC[C@H]1O[C@@H]([S-])[C@H](OC(C)=O)[C@@H](OC(C)=O)[C@@H]1OC(C)=O.CCP(CC)CC.[Au+]` [Auranofin], the figure is 82.1 ± 31.0%; as for `O=C(O)C1=CC(=C(c2ccc(O)c(C(=O)O)c2)c2ccc(O)c(C(=O)O)c2)C=CC1=O` [Aurintricarboxylic acid], 93.7 ± 12.0%; as for `CCCCCCCCCCCCCCCCCCN(CCCCCCCCCCCCCCCCCC)CCCN(CCO)CCO` [Avridine], 100.2 ± 21.9%.
Turning to `Cn1cnc([N+](=O)[O-])c1Sc1ncnc2nc[nH]c12` [Azathioprine], the “% 25 nM CA200645 binding” value was 93.9 ± 5.0%.
Still for that read-out and setting: the result for `O=C(O)CCCCCCCC(=O)O` [Azelaic acid] reads 91.8 ± 5.2%.
For the molecule `CC[C@H]1OC(=O)[C@H](C)[C@@H](O[C@H]2C[C@@](C)(OC)[C@@H](O)[C@H](C)O2)[C@H](C)[C@@H](O[C@@H]2O[C@H](C)C[C@H](N(C)C)[C@H]2O)[C@](C)(O)C[C@@H](C)CN(C)[C@H](C)[C@@H](O)[C@]1(C)O` [Azithromycin dihydrate], the “% 25 nM CA200645 binding” value was 98.9 ± 6.9%.
For the molecule `CCN1CCc2nc(N)oc2CC1.Cl.Cl` [B-HT 933 dihydrochloride], the “% 25 nM CA200645 binding” value amounted to 90.5 ± 9.0%.
For `COc1ccc(-c2cc3nccn3c(Nc3ncccc3C(N)=O)n2)cc1OC.Cl.O` [BAY 61-3606 hydrochloride hydrate], the “% 25 nM CA200645 binding” value stood at 83.8 ± 10.8%.
For `OCC(CO)(CBr)CBr` [BBMP], the “% 25 nM CA200645 binding” value is given as 93.9 ± 9.9%.
For the molecule `Nc1ccc(-c2ccc3ccccc3n2)cc1` [BF-170 hydrochloride], the “% 25 nM CA200645 binding” value was found to be 78.6 ± 20.5%.
Take `CC(=O)O[C@H]1Cc2ccccc2N(C(N)=O)c2ccccc21` [BIA 2-093]: the “% 25 nM CA200645 binding” value was 110.6 ± 5.0%.
Same read-out and setting: the result for `COc1cc2nc(N3CCCN(C)CC3)nc(NC3CCN(Cc4ccccc4)CC3)c2cc1OC` [BIX 01294 trihydrochloride hydrate] reads 97.9 ± 21.2%; that for `COc1ccccc1N1CCN(CCN2C(=O)CC3(CCCC3)CC2=O)CC1.Cl.Cl` [BMY 7378 dihydrochloride], 82.8 ± 23.0%.
In the case of `O=C(O)/C=C\C(=O)O.O=C1/C(=C/c2ccccc2)C[C@@]2(O)[C@H]3Cc4ccc(O)c5c4[C@@]2(CCN3CC2CC2)[C@H]1O5` [BNTX maleate salt hydrate], the “% 25 nM CA200645 binding” value amounted to 109.9 ± 5.7%.
Still for that read-out and setting: the result for `C[C@H](Cc1ccc(OCC(=O)[O-])cc1)NC[C@H](O)c1cccc(Cl)c1.[Na+]` [BRL 37344 sodium] reads 98.2 ± 9.4%; that for `Cc1ccc([N+](=O)[O-])cc1S(=O)(=O)N(C)C` [BRL 50481], 82.8 ± 17.4%.
With `Cl.O=C(Cc1ccc(Cl)c(Cl)c1)N1CCCCC1CN1CCCC1` (stereo not shown) [BRL 52537 hydrochloride], the “% 25 nM CA200645 binding” value was 112.4 ± 4.2%.
The same measure, in the same setting: as for `CN1CCC(c2c[nH]c3ccc(O)cc23)CC1.O=C(O)/C=C\C(=O)O` [BRL 54443 maleate], the figure is 102.8 ± 6.2%; as for `Cl.c1ccc2sc(C3(N4CCCCC4)CCCCC3)cc2c1` [BTCP hydrochloride], 94.3 ± 14.0%.
Consider `N#Cc1cc([N+](=O)[O-])c2sc(C(N)=O)[n+]([O-])c2c1` [BTO-1], for which the “% 25 nM CA200645 binding” value is given as 99.9 ± 23.7%.
The same measure, in the same setting: as for `Cl.c1ccc2nc(C3=NCCN3)ccc2c1` [BU224 hydrochloride], the figure is 100.8 ± 7.2%; as for `C=CC[N+](C)(C)c1ccc(CCC(=O)CCc2ccc([N+](C)(C)CC=C)cc2)cc1.[Br-].[Br-]` [BW 284c51], 100.9 ± 3.8%.
Still for that read-out and setting: the result for `CC(N)Cc1c[nH]c2ccc(OCc3cccs3)cc12` (stereo not shown) [BW 723C86] reads 102.2 ± 11.4%; that for `CC(/C=C/c1cccc(Oc2ccc(F)cc2)c1)N(O)C(N)=O` (stereo not shown) [BWB70C], 92.4 ± 13.0%.
On to `Cc1ccc(S(=O)(=O)/C=C/C#N)cc1` [Bay 11-7082], for which the “% 25 nM CA200645 binding” value is on record as 104.6 ± 21.3%.
`CC(C)(C)c1ccc(S(=O)(=O)/C=C/C#N)cc1` [Bay 11-7085]: the “% 25 nM CA200645 binding” value turned out to be 95.2 ± 7.7%.
Turning to `C[C@H]1C[C@H]2[C@@H]3CCC4=CC(=O)C=C[C@]4(C)[C@@]3(Cl)[C@@H](O)C[C@]2(C)[C@@]1(O)C(=O)CO` [Beclomethasone], the “% 25 nM CA200645 binding” value is listed as 93.7 ± 1.6%.

The assay is the same for the next values; noted with them: % of control wells (1% DMSO and 25 nM CA200645); compounds at 10 µM; whole live cells expressing the A3AR; mean ± SD, three experiments in duplicate.
For the molecule `CO[C@H]1O[C@@H]2O[C@@]3(C)CC[C@H]4[C@H](C)CC[C@@H]([C@H]1C)[C@@]24OO3` [Artemether], the “% 25 nM CA200645 binding” value stood at 99.4 ± 9.9%.

Staying with this assay, now noted: compounds tested at 10 µM; % of control wells (1% DMSO and 25 nM CA200645); whole live cells expressing the A3AR; mean ± SD, three experiments in duplicate.
Turning to `CCNC(=O)N1CCN(CCCC(c2ccc(F)cc2)c2ccc(F)cc2)CC1` [Amperozide hydrochloride], the “% 25 nM CA200645 binding” value stood at 92.9 ± 0.6%.
On to `NC(N)=NCCCCN=C(N)N` [Arcaine sulfate], for which the “% 25 nM CA200645 binding” value was 96.1 ± 6.4%.
Same read-out and setting: the result for `C[N+]1(C)[C@@H]2CC[C@H]1C[C@@H](OC(=O)C(CO)c1ccccc1)C2` (stereo partly shown) [Atropine methyl bromide] reads 102.2 ± 7.3%.
Still for that read-out and setting: as for `C[N+]1(C)[C@@H]2CC[C@H]1C[C@@H](OC(=O)C(CO)c1ccccc1)C2` (stereo partly shown) [Atropine methyl nitrate], the figure is 90.8 ± 8.8%.
